One sequence from patent US10854312B2, “Selective peptide antagonists” (BIONIZ, LLC, priority 2013, dated 2020) can be followed below.

Experiment [1] deals with human IL-7. In words: Human peripheral T-cell (PBMC) proliferation assay, IL-7. Format: cell-based. The note with it: ex vivo human primary T cells, 10 nM human IL-7. The protocol:
FIG. 6A-FIG. 6E presents inhibitory spectrum of BNZ132-1 over γc- and non-γc-cytokines. […] Neutralizing antibodies against each cytokine (R & D systems, 5 μg ml^−1) were included as controls. After 20 h, the cells were pulsed with WST-1 (Clontech) and OD450 of each well was measured after 6 h. A 19-mer scrambled peptide was used as a negative control at 5 μM. The experiments were conducted in triplicate (applies to all experiments in FIG. 6A-FIG. 6E). The result represents one of at least three independent experiments (applies to all experiments in FIG. 6A-FIG. 6E). […] In PT-18 proliferation assay, PT-18β or PT-18h21Rα cells were withdrawn of mouse IL-3 for 12 h before the experiment. Cells were then incubated with 1 nM of mouse IL-4, mouse IL-9, or mouse IL-21 in the presence or absence of the indicated doses (μM) of BNZ132-1. Neutralizing antibodies to each cytokine (5 μg ml^−1, except for anti-mouse IL-21 polyclonal antibody which was used at 15 μg ml−1) and a scrambled control peptide (5 μM) were included as negative controls. WST-1 assay was conducted as described above. […] In PT-18 h21Rα survival assay, PT-18h21Rα cells are described in the text. […] Both parental and hIL-21Rα positive PT-18 cells were washed and incubated without IL-3 for 12 h before the assay. […] The Y-axis represents the cpm (count per minute) values measured by a β-counter. […]

Experiment [2] relates to IL-2/IL-15-induced proliferation of ex vivo human T-lymphocytes. Type of experiment: cell-based. The procedure: FIG. 7A, and FIG. 7B present effective inhibition of a combined function of target γc-cytokines by BNZ132-1. […] Human Peripheral T cells were prepared as described in the methodology section. Four hundred thousand cells (in 200 μl culture) were incubated with the cytokines and BNZ132-1 at the indicated concentrations for 24 h, and cellular proliferation was determined by the […] using the WST-1 reagent (Clontech). The Y-axis represents the OD450 values. The p values; 1 nM cytokine combination—No inhibition vs. anti-IL-2; 0.33, No inhibition vs. anti-IL-15; 0.13, No inhibition vs. anti IL-2+IL-15; 0.003. No inhibition vs. BNZ132-1; 0.021. 0.1 nM cytokine combination—No inhibition vs. anti-IL-2; 0.046, No inhibition vs. anti-IL-15; 0.057, No inhibition vs. anti IL-2+IL-15; 0.001, No inhibition vs. anti IL-2+15; 0.001, No inhibition vs.BNZ132-1; 0.001. The assay was performed in triplicate. […] Peripheral blood mononuclear cells were purified from the blood of a HAM-TSP patient and set up for a spontaneous proliferation assay as previously described36. The cellular proliferation was measured by the thymidine incorporation assay. The Y-axis represents the cpm values. Doses are on the X-axis; BNZ132-1, 3 and 0.3 μM. […] After 12 h incubation, OD450 was measured. […] Absorbance at 450 nm was read at 6 h after the addition of the WST-1 dye. […]

Entries after “also recorded” stand apart in the source; their conditions may differ. No end group written: not given here.

For orientation: IC50 means the concentration that gives 50% inhibition. For IKEFLQRFIHIVQSIINTS [BNZ132-1], the “inhibition of IL-7-induced proliferation of ex vivo human T cells” value in experiment [1] is on record as “not significantly inhibited; also recorded: no inhibition of IL-7”. In experiment [2], the IC50 amounted to 150 nM.
